Data reported in PMC11923837, “Proline-Modified (RW)n Peptides: Enhancing the Antimicrobial Efficacy and Selectivity against Multidrug-Resistant Pathogens” (ACS Omega, 2025).
Like-named read-outs stand apart in the source and are kept apart here. No end group written: not given here.

Tests used:
[1] = system: Acinetobacter baumannii ATCC 19606; assay: microbe, parasite or virus in culture; details: for MIC, Ab (Table 1S): supplement Table 1S, unit not given (main-text tables: μg/mL), capital letter component 95 mg; for MIC: Acinetobacter baumannii, ATCC19606, 18 h, read-out: MIC against Ab
Experimental: (§1) Antimicrobial activity was evaluated using the Community for Open Antimicrobial Drug Discovery (CO-ADD) screening platform. Minimum inhibitory concentrations (MICs) were determined against the following five bacterial strains: Escherichia coli (E. coli) ATCC 25922, Klebsiella pneumoniae ATCC 700603, Acinetobacter baumannii ATCC 19606, Pseudomonas aeruginosa ATCC 27853, and Staphylococcus aureus ATCC 43300.
(§2) Bacteria were cultured in cation-adjusted Mueller–Hinton broth (CAMHB) at 37 °C overnight. Cultures were diluted 40-fold in fresh broth and incubated at 37 °C for 1.5–3 h. Mid-log phase cultures were then diluted and added to the compound-containing plates, giving a final cell density of 5 × 10^5 CFU/mL in a total volume of 50 μL. Plates were incubated at 37 °C for 18 h without shaking.
(§3) Bacterial growth inhibition was determined by measuring the absorbance at 600 nm (OD600) using a Tecan M1000 Pro monochromator plate reader. The percentage of growth inhibition was calculated using negative (media only) and positive (bacteria without inhibitors) controls. Significance was determined by modified Z scores calculated using the median and MAD of the samples on the same plate. Samples with inhibition values above 80% and Z scores above 2.5 for either replicate were classified as active.
(§4) The fractional inhibitory concentration (FIC) index was calculated to determine synergy, additivity, or antagonism.
(§5) Colistin and VAN were used as positive bacterial inhibitor standards for Gram-negative and Gram-positive bacteria, respectively. The quality control (QC) of the assays was determined by the antimicrobial controls and the Z’ factor (using positive and negative controls).
(§6) Percentage growth inhibition was calculated using negative (media only) and positive (bacteria without inhibitors) controls. Modified Z scores were used to determine the significance of the inhibition values. Samples with inhibition values of above 80% and Z scores of above 2.5 for either replicate were classified as active. Data are presented as the mean ± standard deviation from at least three independent experiments.

[2] = system: Escherichia coli (E. coli) ATCC 25922; assay: microbe, parasite or virus in culture; details: for MIC, Ec (Table 1S): supplement Table 1S, unit not given (main-text tables: μg/mL), capital letter component 95 mg; for MIC: Escherichia coli, ATCC25922, 18 h, read-out: MIC against E. coli
Experimental: as §1, §2, §3, §4, §5, §6

[3] = system: Klebsiella pneumoniae ATCC 700603; assay: microbe, parasite or virus in culture; details: for MIC against Kp: ATCC 700603, 18 h; for MIC, Kp (Table 1S): supplement Table 1S, unit not given (main-text tables: μg/mL), capital letter component 95 mg, minor letter component 5 mg
Experimental: as §1, §2, §3, §4, §5, §6

[4] = system: Pseudomonas aeruginosa ATCC 27853; assay: microbe, parasite or virus in culture; details: for MIC, Pa (Table 1S): supplement Table 1S, unit not given (main-text tables: μg/mL), capital letter component 95 mg; for MIC: Pseudomonas aeruginosa, ATCC27853, 18 h, read-out: MIC against Pa
Experimental: as §1, §2, §3, §4, §5, §6

[5] = system: Staphylococcus aureus ATCC 43300 (MRSA); assay: microbe, parasite or virus in culture; details: for MIC, Sa (Table 1S): supplement Table 1S, unit not given (main-text tables: μg/mL), capital letter component 95 mg; for MIC: Staphylococcus aureus, read-out: MIC against MRSA
Experimental: as §1, §2, §3, §4, §5, §6

[6] = system: human embryonic kidney (HEK293) cells; assay: Cytotoxicity, resazurin reduction assay; format: cell-based
Experimental: (§7) Cytotoxicity was evaluated using human embryonic kidney (HEK293) and human red blood cells (RBCs). HEK293 cells were cultured in DMEM supplemented with 10% FBS. Cells were seeded in 384-well plates and incubated with peptides for 24 h. Cell viability was assessed using the resazurin reduction assay. Hemolysis assays were performed using fresh human RBCs incubated with peptides for 1 h at 37 °C.

[7] = system: human red blood cells (RBCs); assay: Hemolysis assay; format: cell-based
Experimental: as §7

[8] = system: Gram-positive and Gram-negative bacteria; assay: Structure-activity summary: antimicrobial activity (Table 5); format: cell-based; details: summary in words
human cells = format: cell-based
[9] = summary in words, Table 5; earlier biophysical studies ref 20; cited from earlier work
Description: Table 5 Structure–Activity Relationships of (RW)n Peptides ^a | column: Thermal stability

[10] = S. aureus ATCC 43300, CAMHB, 5 × 10^5 CFU/mL, 37 °C, 18 h, OD600, mixtures: capital letter component 95 mg, minor letter component 5 mg

Compound	MIC against Ab ([1]; ATCC 19606, 18 h)	MIC, Ab (Table 1S) ([1]; minor letter component 5 mg)	MIC against E. coli ([2]; ATCC 25922, 18 h)	MIC, Ec (Table 1S) ([2]; minor letter component 5 mg)	MIC against Kp [3]	MIC, Kp (Table 1S) [3]	MIC against Pa ([4]; ATCC 27853, 18 h)	MIC, Pa (Table 1S) ([4]; minor letter component 5 mg)	MIC against MRSA ([5]; ATCC 43300, 18 h)	MIC, Sa (Table 1S) ([5]; minor letter component 5 mg)	MIC, Hk (Table 1S) [6]	HEK293 cells MIC ([6]; 24 h)	MIC, Hm (Table 1S) [7]	RBC hemolysis MIC [7]	Antimicrobial activity [8]	Toxicity (human cells)	Thermal stability [9]	further results
N=C(N)NCCC[C@H](NC(=O)[C@H](Cc1c[nH]c2ccccc12)NC(=O)[C@H](CCCNC(=N)N)NC(=O)[C@H](Cc1c[nH]c2ccccc12)NC(=O)[C@H](CCCNC(=N)N)NC(=O)[C@H](Cc1c[nH]c2ccccc12)NC(=O)[C@H](CCCNC(=N)N)NC(=O)[C@H](Cc1c[nH]c2ccccc12)NC(=O)[C@H](CCCNC(=N)N)NC(=O)[C@H](Cc1c[nH]c2ccccc12)NC(=O)[C@@H](N)CCCNC(=N)N)C(=O)N[C@@H](Cc1c[nH]c2ccccc12)C(N)=O [RW6]	>32 µg/mL	> 32	≤0.25 µg/mL	<= 0.25	>32 µg/mL	> 32	>32 µg/mL	> 32	≤0.25 µg/mL	<= 0.25	> 32 µg/mL	>32 µg/mL	<= 0.25	≤0.25 µg/mL	High	Moderate	High	–
CN[C@H](CC(C)C)C(=O)N[C@H]1C(=O)N[C@@H](CC(N)=O)C(=O)N[C@H]2C(=O)N[C@H]3C(=O)N[C@H](C(=O)N[C@H](C(=O)O)c4cc(O)cc(O)c4-c4cc3ccc4O)[C@H](O)c3ccc(c(Cl)c3)Oc3cc2cc(c3O[C@@H]2O[C@H](CO)[C@@H](O)[C@H](O)[C@H]2O[C@H]2C[C@](C)(N)[C@H](O)[C@H](C)O2)Oc2ccc(cc2Cl)[C@H]1O [VAN, vancomycin, reference compound]	–	> 32	–	> 32	–	> 32	–	> 32	–	<= 0.25	–	–	–	–	–	–	–	MIC [1]: > 32 µg/mL; MIC [2]: > 32 µg/mL; MIC ([3]; Klebsiella pneumoniae, ATCC700603, 18 h, read-out: MIC against Kp): > 32 µg/mL; MIC [4]: > 32 µg/mL; MIC ([5]; 18 h): ≤ 0.25 µg/mL; HEK293 cytotoxic concentration ([6]; supplement Table 1S, Hk = HEK293 cytotoxicity, 24 h, resazurin, unit not given (main-text tables: μg/mL), capital 95 mg, minor letter 5 mg): > 32 µg/mL; MIC, Hm (Table 1S) ([7]; supplement Table 1S, Hm = human RBC hemolysis, 1 h, 37 °C, unit not given (main-text tables: μg/mL), capital 95 mg, minor letter 5 mg, in µg/mL): 28.69
penicillin [reference compound]	–	> 32	–	32	–	–	–	> 32	–	8	> 32 µg/mL	–	> 32	–	–	–	–	MIC against Ab ([1]; A. baumannii ATCC 19606, CAMHB, 5 × 10^5 CFU/mL, 37 °C, 18 h, OD600, mixtures: capital letter component 95 mg, minor letter component 5 mg): >32 µg/mL; MIC against E. coli ([2]; E. coli ATCC 25922, CAMHB, 5 × 10^5 CFU/mL, 37 °C, 18 h, OD600, mixtures: capital letter component 95 mg, minor letter component 5 mg): 32 µg/mL; MIC against Pa ([4]; P. aeruginosa ATCC 27853, CAMHB, 5 × 10^5 CFU/mL, 37 °C, 18 h, OD600, mixtures: capital letter component 95 mg, minor letter component 5 mg): >32 µg/mL; MIC against MRSA [5, 10]: 8 µg/mL
CC[C@H](C)[C@H](N)C(=O)N[C@@H](CC(C)C)C(=O)N1CCC[C@H]1C(=O)N[C@@H](Cc1c[nH]c2ccccc12)C(=O)N[C@@H](CCCCN)C(=O)N[C@@H](Cc1c[nH]c2ccccc12)C(=O)N1CCC[C@H]1C(=O)N[C@@H](Cc1c[nH]c2ccccc12)C(=O)N[C@@H](Cc1c[nH]c2ccccc12)C(=O)N1CCC[C@H]1C(=O)N[C@@H](Cc1c[nH]c2ccccc12)C(=O)N[C@@H](CCCN=C(N)N)C(=O)N[C@@H](CCCN=C(N)N)C(N)=O [Indolicidin, reference compound]	–	–	–	–	–	–	–	–	–	–	–	–	–	–	–	–	–	RBC hemolysis MIC ([7]; fresh human RBCs, 1 h, 37 °C): >32 µg/mL
RWRWPRWRWPRWRW-NH2 [RW6-2P]	2 µg/mL	2	16 µg/mL	16	>32 µg/mL	> 32	≤0.25 µg/mL	<= 0.25	≤0.25 µg/mL	<= 0.25	> 32 µg/mL	>32 µg/mL	> 32	>32 µg/mL	–	–	–	MIC against MRSA [5, 10]: ≤ 0.25 µg/mL
RWRWRWRWRWRWRWRW-NH2 [RW8]	32 µg/mL	32	32 µg/mL	32	>32 µg/mL	> 32	>32 µg/mL	> 32	2 µg/mL	2	> 32 µg/mL	>32 µg/mL	0.4523	0.4523 µg/mL	High (Gram+), Moderate (Gram−)	Moderate	High	–
CC1(C)S[C@@H]2[C@H](NC(=O)[C@H](N)c3ccccc3)C(=O)N2[C@H]1C(=O)O [AMP, ampicillin, reference compound]	–	> 32	–	8	–	–	–	> 32	–	32	> 32 µg/mL	–	> 32	–	–	–	–	MIC [1]: > 32 µg/mL; MIC [2]: 8 µg/mL; MIC [4]: > 32 µg/mL; MIC ([5]; 18 h): 32 µg/mL
RWRWRWRW-NH2 [RW4]	>32 µg/mL	> 32	–	> 32	>32 µg/mL	> 32	>32 µg/mL	> 32	8 µg/mL	8	> 32 µg/mL	>32 µg/mL	> 32	>32 µg/mL	Moderate	Low	Low	–
